Results as given in patent US20190364896A1, “SYNERGISTIC WEED CONTROL FROM APPLICATIONS OF PYRIDINE CARBOXYLIC ACID HERBICIDES AND ALS INHIBITORS” (Dow AgroSciences LLC, priority 2014, published 2019).
“And” between values parts separate entries of the source, which are not always exact repeats. Identical values can stand only once. Like-named read-outs stand apart in the source and are kept apart here.

Assays:
Assay in all cases: Postemergence herbicidal activity, greenhouse trial (visual injury 0-100%)
Format in all cases: in vivo
[1] = system: rutabaga (Brassica napus var. napobrassica, BRSNA); conditions: 5 g ae/ha
Method: (§1) Seeds of the desired test plant species were planted in Sun Gro MetroMix® 306 planting mixture, which typically has a pH of 6.0 to 6.8 and an organic matter content of about 30 percent, in plastic pots with a surface area of 103.2 square centimeters (cm^2). […] The plants were grown for 7-36 days (d) in a greenhouse with an approximate 14-hour (h) photoperiod which was maintained at about 23° C. during the day and 22° C. during the night. Nutrients and water were added on a regular basis and supplemental lighting was provided with overhead metal halide 1000-Watt lamps as necessary. The plants were employed for testing when they reached the second or third true leaf stage.
(§2) Weighed amounts of technical material were dissolved in a volume of 97:3 volume per volume (v/v) acetone/dimethyl sulfoxide (DMSO) to stock solutions. […] The concentrated stock solutions were diluted with an aqueous mixture of 1.5% v/v of Agri-dex crop oil concentrate to provide the appropriate application rates. Compound requirements are based upon a 12 milliliter (mL) application volume at a rate of 187 liters per hectare (L/ha). Spray solutions of the experimental compound mixtures were prepared by adding the stock solutions to the appropriate amount of dilution solution to form a 12 mL spray solution in two-way combinations. Formulated compounds were applied to the plant material with an overhead Mandel track sprayer equipped with 8002E nozzles calibrated to deliver 187 L/ha over an application area of 0.503 square meters (m^2) at a spray height of 18 inches (43 centimeters (cm)) above average plant canopy. Control plants were sprayed in the same manner with the solvent blank. Application rates for component (a) are in g ae/ha, and application rates for component (b) are in g ai/ha.
(§3) The treated plants and control plants were placed in a greenhouse as described above and watered by sub-irrigation to prevent wash-off of the test compounds. After 20-22 d, the condition of the test plants as compared with that of the control plants was determined visually and scored on a scale of 0 to 100 percent where 0 corresponds to no injury and 100 corresponds to complete kill. The condition of the test plants was compared with that of the control plants as determined visually and scored on a scale of 0 to 100 percent, where 0 corresponds to no injury and 100 corresponds to complete kill. Colby's equation was used to determine the herbicidal effects expected from the mixtures.
(§4) Compound 1 was formulated as an EC and was combined with imazamox, imazamethabenz, imazapic, imazapyr or imazethapyr. The mixtures were applied to winter wheat (TRZAW) and/or maize (ZEAMX), and the phytotoxicity of the herbicidal compositions was measured. In addition, the efficacy of the herbicidal compositions on blackgrass (Alopecurus myosuroides, ALOMY), wild oat (Avena fatua, AVEFA), winter rape (Brassica napus, BRSNW), spring rape (Brassica napus, BRSNN), turnip (Brassica rapa, BRSRR), thistle (Cirsium arvense, CIRAR), large crabgrass (Digitaria sanguinalis, DIGSA), pigweed (Amaranthus retrollexus, AMARE), common lambsquarters (Chenopodium album L., CHEAL), poinsettia (Euphorbia heterophylla, EPHHL), ivyleaf morning-glory (Ipomoea hederacea, IPOHE), kochia (Kochia scoparia, KCHSC), wild buckwheat (Polygonum convolvulus, POLCO), grain sorghum (Sorghum vulgare, SORVU), chickweed (Stellaria media, STEME), wild pansy (Viola tricolor, VIOTR), sunflower (Helianthus annuus, HELAN), giant foxtail (Setaria faberi, SETFA), soybean (Glycine max, GLXMA), rutabaga (Brassica napus var. napobrassica, BRSNA) and barnyardgrass (Echinochloa crus-galli, ECHCG) was evaluated.

[2] = system: turnip (Brassica rapa, BRSRR); conditions: 5 g ae/ha
Method: as §1, §2, §3, §4

[3] = system: soybean (Glycine max, GLXMA)
Method: as §1, §2, §3, §4

[4] = system: pigweed (Amaranthus retroflexus, AMARE); conditions: Amaranthus retroflexus, post-emergence, read-out: % visual injury Obs
Summary of the method: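 Foliar track-sprayer application, 187 L/ha, 2–3 true-leaf plants; spray solution = acetone/DMSO 97:3 stock diluted into 1.5% v/v Agri-dex. Component (a) in g ae/ha, (b) in g ai/ha. Visual rating 0 (no injury)–100 (complete kill) at 20-22 d vs solvent blank.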

[5] = system: winter rape (Brassica napus, BRSNW)
[6] = system: poinsettia (Euphorbia heterophylla, EPHHL); conditions: for % visual injury Obs: EPHHL
Summary of the method: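 Greenhouse-grown plants at the second to third true leaf stage were sprayed with two-way mixtures in 1.5% v/v Agri-dex crop oil concentrate at 187 L/ha; rates in g ae/ha for component (a) and g ai/ha for component (b). Injury scored visually 0–100% versus solvent-blank controls after 20–22 d, with expected mixture effects from Colby's equation.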

[7] = system: brown mustard (Brassica juncea, BRSJU); conditions: Compound 1 5 g ae/ha
[8] = system: large crabgrass (Digitaria sanguinalis, DIGSA)

Nc1c(F)c(-c2ccc3cc[nH]c3c2F)nc(C(=O)O)c1Cl [Compound 1]
% visual injury Obs [1]: 65% | % visual injury Obs [2]: 50% | % visual injury Obs ([3]; 5 g ae/ha): 95% | % visual injury Obs ([3]; 10 g ae/ha): 100% | pest or weed control at 5 g/ha ([4]; 5 g ae/ha): 95% | pest or weed control at 10 g/ha ([4]; 10 g ae/ha): 97% | pest or weed control at 5 g/ha ([4]; AMARE, Compound 1 5 g ae/ha): 75% | pest or weed control at 10 g/ha ([4]; AMARE, Compound 1 10 g ae/ha): 97% | % visual injury Obs ([5]; 5 g ae/ha): 30% and 40% | % visual injury Obs ([5]; 10 g ae/ha): 45% | % visual injury Obs ([5]; BRSNW, Compound 1 5 g ae/ha): 50% and 40% | % visual injury Obs ([5]; BRSNW, Compound 1 10 g ae/ha): 45% | % visual injury Obs ([6]; Compound 1 5 g ae/ha): 97% | % visual injury Obs ([6]; Compound 1 10 g ae/ha): 97% | pest or weed control at 5 g/ha ([6]; Euphorbia heterophylla, post-emergence, 5 g ae/ha, read-out: % visual injury Obs): 97% | pest or weed control at 10 g/ha ([6]; Euphorbia heterophylla, post-emergence, 10 g ae/ha, read-out: % visual injury Obs): 97% | % visual injury Obs [7]: 60% | % visual injury Obs ([8]; 5 g ae/ha): 5% and 0% | % visual injury Obs ([8]; 10 g ae/ha): 10%
